Data on 25 molecules can be found in patent US5114918A, “Endothelin antagonistic cyclic pentapeptides” (Banyu Pharmaceutical Co., Ltd., priority 1989, dated 1992).

SMILES strings stand for the structures. Numbered stars: 1 amine (or outer) side, 2 acyl side, 3 side chain; on linkers, the order of the positions; unused ones are H or OH. Square brackets hold non-standard residues; d marks the D form. Peptide text beside a SMILES is read from it. * marks the point of attachment. Gly(N-CH2CH2-imidazol-4-yl) = O=C(O)CNCCc1c[nH]cn1; X4 = O=C1Nc2ccccc2C1C[C@@H](N[*:1])C(=O)[*:2]; dGly(2-thienyl) = N[C@@H](C(=O)O)c1cccs1; X1 = CC[C@](N[*:1])(C(=O)[*:2])c1cccs1; X5 = O=C([C@H](N[*:1])C1=CCC=CC1)[*:2]; dGly(cPent) = N[C@@H](C(=O)O)C1CCCC1; X7 = O=C([C@H](N[*:1])c1ccco1)[*:2]; Hyp = O=C(O)[C@@H]1C[C@@H](O)CN1; Met(O) = CS(=O)CC[C@H](N)C(=O)O; Gly(N-cPent) = O=C(O)CNC1CCCC1; dPen = CC(C)(S)[C@@H](N)C(=O)O; NMeL = CN[C@@H](CC(C)C)C(=O)O; NMeM = CN[C@@H](CCSC)C(=O)O; N(iPr)Gly = CC(C)NCC(=O)O; Ac6c = NC1(C(=O)O)CCCCC1; Thz = O=C(O)[C@@H]1CSCN1; Boc = CC(C)(C)OC(=O)*; Aib = CC(C)(N)C(=O)O; βAla = NCCC(=O)O; Sar = CNCC(=O)O; Moc = COC(=O)*; For = O=C*

The target in the assay is T1, endothelin receptor (membrane of smooth muscle tissue of porcine aorta) (Sus scrofa, UniProt Q29010).
T1 construct: from tissue; host or cells: smooth muscle tissue of porcine aorta (membrane fraction)
T1 sequence (Q29010 21-427): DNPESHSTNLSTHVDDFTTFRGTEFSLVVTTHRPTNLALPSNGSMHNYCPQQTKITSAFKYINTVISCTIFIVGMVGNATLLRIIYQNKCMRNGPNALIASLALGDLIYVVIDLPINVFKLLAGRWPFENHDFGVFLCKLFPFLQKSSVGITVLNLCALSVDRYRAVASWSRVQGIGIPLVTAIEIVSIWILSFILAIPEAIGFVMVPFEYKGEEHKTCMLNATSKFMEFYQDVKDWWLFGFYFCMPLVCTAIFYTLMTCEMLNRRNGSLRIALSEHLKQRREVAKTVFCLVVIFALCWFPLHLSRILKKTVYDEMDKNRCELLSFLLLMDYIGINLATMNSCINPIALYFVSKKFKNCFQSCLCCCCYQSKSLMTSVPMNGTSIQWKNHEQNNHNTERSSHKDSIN
The assay can be described thus: Endothelin binding inhibition test (125I-endothelin-1, porcine aorta smooth muscle membrane). The following applies: 1.1 μM of the test compound; porcine aorta smooth muscle membrane; 25° C, 4 hours; read-out: 125I-endothelin-1 binding inhibition, Inhibition (%). The protocol:
Endothelin binding inhibition test
The smooth muscle tissue of porcine aorta was homogenized in a buffer solution of 10 mM MOPS, pH 7.4, at 4° C. by a polytron. To the homogenate, sucrose was added to a concentration of 20%, and the mixture was centrifuged at 1,000×g for 15 minutes, and the supernatant was further centrifuged at 10,000×g for 15 minutes. The supernatant thereof was further centrifuged at 90,000×g for 40 minutes. The membrane precipitate thereby obtained was suspended in a buffer solution of 5 mM HEPES/Tris, pH 7.4, at a concentration of 25 mg/ml.
Then, 16 μl of this membrane suspension was added to 340 μl of 50 mM Tris/HCl buffer, pH 7.4, containing 10 μM calcium chloride, 10 μM magnesium chloride, 0.1 mM PMSF, 1 μM pepstatin A, 2 μM leupeptin, 1 mM 1,10-phenanthroline and 0.1% bovine serum albumin. To this suspension, 4 μl of (A) endothelin-1 (for nonspecific binding: 0.2 μM as the final concentration), (B) buffer solution A (for total control binding), or (C) a test compound (1.1 μM as the final concentration), was added. Further, to each suspension, 40 μl of ^125 I-endothelin-1 (12000-18000 cpm) was added. These mixtures were incubated at 25° C for 4 hours, then subjected to filtration on a glass filter GF/C and then washed with 5 mM HEPES/Tris, pH 7.4, containing 0.3% bovine serum albumin. Then, the radioactivity trapped by the glass filter was measured, and the ^125 I-endothelin-1 binding inhibition D (%) at 1.1 μM of the test compound was determined by the following equation. [formula] Each test was performed in triplicate.
One may read the inhibition as the relative decrease from the control value, in per cent. Consider `CC(C)C[C@@H]1NC(=O)[C@@H](C(C)C)NC(=O)[C@H](CC[S+](C)[O-])NC(=O)[C@@H](CC(=O)O)NC(=O)[C@@H](Cc2cn(C=O)c3ccccc23)NC1=O` (stereo partly drawn) [Example 58, cyclo(-DTrp(CHO)-DAsp-Met(O)-DVal-Leu-)] (cyclo(L[dW](For)[dD][Met(O)][dV])), for which the inhibition at 1.1 µM turned out to be 84%. `CC(C)C[C@@H]1NC(=O)[C@@H](C(C)(C)S)NC(=O)[C@@H]2CCCN2C(=O)[C@@H](CC(=O)O)NC(=O)[C@@H](Cc2c[nH]c3ccccc23)NC1=O` [Example 60, cyclo(-DTrp-DAsp-Pro-DPen-Leu-)] (cyclo(L[dW][dD]P[dPen])): the inhibition at 1.1 µM is 79%.

As to `CC(C)C[C@@H]1NC(=O)[C@@H](C(C)C)NC(=O)C(C)(C)NC(=O)[C@@H](CC(=O)O)NC(=O)[C@@H](Cc2c[nH]c3ccccc23)NC1=O` [Example 61, cyclo(-DTrp-DAsp-Aib-DVal-Leu-)] (cyclo([Aib][dV]L[dW][dD])), the inhibition at 1.1 µM came out at 66%. Then `CC(C)C[C@@H]1NC(=O)C(C)(C)NC(=O)[C@@H]2CCCN2C(=O)[C@@H](CC(=O)O)NC(=O)[C@@H](Cc2c[nH]c3ccccc23)NC1=O` [Example 62, cyclo(-DTrp-nAsp-Pro-Aib-Leu-)] (cyclo([Aib]L[dW][dD]P)), with 60%.

For `CC(C)C[C@@H]1NC(=O)C2(CCCCC2)NC(=O)[C@@H]2CCCN2C(=O)[C@@H](CC(=O)O)NC(=O)[C@@H](Cc2c[nH]c3ccccc23)NC1=O` [Example 64, cyclo(-DTrp-DAsp-Pro-Ac6 c-Leu-)] (cyclo([Ac6c]L[dW][dD]P)), the inhibition at 1.1 µM is 83%. Then `CC(C)C[C@@H]1NC(=O)[C@@H](C(C)C)NC(=O)CN(C)C(=O)[C@@H](CC(=O)O)NC(=O)[C@@H](Cc2c[nH]c3ccccc23)NC1=O` [Example 65, cyclo(-DTrp-DAsp-Sar-DVal-Leu-)] (cyclo(L[dW][dD][Sar][dV])), with 85%; and `CC(C)C[C@@H]1NC(=O)[C@@H](C(C)C)NC(=O)CCNC(=O)[C@@H](CC(=O)O)NC(=O)[C@@H](Cc2c[nH]c3ccccc23)NC1=O` [Example 66, cyclo(-DTro-DAsp-β-Ala-DVal-Leu-)] (cyclo(L[dW][dD][βAla][dV])), with 38%; and `CC(C)C[C@@H]1NC(=O)[C@@H](c2cccs2)NC(=O)[C@@H]2CCCN2C(=O)[C@@H](CC(=O)O)NC(=O)[C@@H](Cc2c[nH]c3ccccc23)NC1=O` [Example 67, cyclo(-DTrp-DAsp-Pro-DThg-Leu-)] (cyclo(L[dW][dD]P[dGly(2-thienyl)])), with 82%. Turning to `CC(C)C[C@@H]1NC(=O)[C@@H](C(C)C)NC(=O)[C@@H]2CSCN2C(=O)[C@@H](CC(=O)O)NC(=O)[C@@H](Cc2c[nH]c3ccccc23)NC1=O` [Example 68, cyclo(-DTrp-DAsp-Thz-DVal-Leu-)] (cyclo(L[dW][dD][Thz][dV])), the inhibition at 1.1 µM was determined as 86%.

On to `CC(C)C[C@H]1C(=O)N[C@H](Cc2c[nH]c3ccccc23)C(=O)N[C@H](CC(=O)O)C(=O)N2CCC[C@H]2C(=O)N[C@H](C(C)C)C(=O)N1C` [Example 69, cyclo(-DTrp-DAsp-Pro-DVal-MeLeu-)] (cyclo([NMeL][dW][dD]P[dV])), for which the inhibition at 1.1 µM came out at 85%.

For the molecule `CSCC[C@H]1C(=O)N[C@H](C(C)C)C(=O)N[C@@H](CC(C)C)C(=O)N[C@H](Cc2c[nH]c3ccccc23)C(=O)N[C@H](CC(=O)O)C(=O)N1C` [Example 70, cyclo(-DTrp-DAsp-MeMet-DVal-Leu-)] (cyclo(L[dW][dD][NMeM][dV])), the inhibition at 1.1 µM came out at 85%. Then `CC(C)C[C@@H]1NC(=O)[C@@H](c2cccs2)NC(=O)CN(C)C(=O)[C@@H](CC(=O)O)NC(=O)[C@@H](Cc2c[nH]c3ccccc23)NC1=O` [Example 72, cyclo(-DTrp-DAsp-Sar-DThg-Leu-)] (cyclo(L[dW][dD][Sar][dGly(2-thienyl)])), with 79%; and `CC(C)C[C@@H]1NC(=O)[C@@H](c2cccs2)NC(=O)CN(C2CCCC2)C(=O)[C@@H](CC(=O)O)NC(=O)[C@@H](Cc2c[nH]c3ccccc23)NC1=O` [Example 73, cyclo(-DTrp-DAsp-CpGly-DThg-Leu-)] (cyclo(L[dW][dD][Gly(N-cPent)][dGly(2-thienyl)])), with 85%. The figure for `CC(C)C[C@@H]1NC(=O)[C@@H](C2=CCC=CC2)NC(=O)[C@@H]2CCCN2C(=O)[C@@H](CC(=O)O)NC(=O)[C@@H](Cc2c[nH]c3ccccc23)NC1=O` [Example 74, cyclo(-DTrp-DAsp-Pro-DDpg-Leu-)] (cyclo(L[dW][dD]P[X5])) is 89%; for `CC(C)C[C@@H]1NC(=O)[C@@H](c2cccs2)NC(=O)CN(C(C)C)C(=O)[C@@H](CC(=O)O)NC(=O)[C@@H](Cc2c[nH]c3ccccc23)NC1=O` [Example 78, cyclo(-DTrp-DAsp-^i PrGly-DThg-Leu-)] (cyclo(L[dW][dD][N(iPr)Gly][dGly(2-thienyl)])) it is 85%. The figure for `CC(C)C[C@@H]1NC(=O)[C@@H](c2cccs2)NC(=O)[C@@H]2C[C@@H](O)CN2C(=O)[C@@H](CC(=O)O)NC(=O)[C@@H](Cc2c[nH]c3ccccc23)NC1=O` [Example 79, cyclo(-DTrp-DAsp-trans-Hyp-DThg-Leu-)] (cyclo([Hyp][dGly(2-thienyl)]L[dW][dD])) is 88%.

For the molecule `CC(C)C[C@@H]1NC(=O)[C@@H](c2ccco2)NC(=O)[C@@H]2CCCN2C(=O)[C@@H](CC(=O)O)NC(=O)[C@@H](Cc2c[nH]c3ccccc23)NC1=O` [Example 80, cyclo(-DTrp-DAsp-Pro-DFug-Leu-)] (cyclo(L[dW][dD]P[X7])), the inhibition at 1.1 µM was determined as 83%. Then `CC(C)C[C@@H]1NC(=O)[C@@H](C2CCCC2)NC(=O)[C@@H]2CCCN2C(=O)[C@@H](CC(=O)O)NC(=O)[C@@H](Cc2c[nH]c3ccccc23)NC1=O` [Example 81, cyclo(-DTrp-DAsp-Pro-DCpg-Leu-)] (cyclo(L[dW][dD]P[dGly(cPent)])), with 86%.

Turning to `CC[C@]1(c2cccs2)NC(=O)[C@@H]2CCCN2C(=O)[C@@H](CC(=O)O)NC(=O)[C@@H](Cc2c[nH]c3ccccc23)NC(=O)[C@H](CC(C)C)NC1=O` [Example 82, cyclo(-DTrp-DAsp-Pro-DEtg-Leu-)] (cyclo(L[dW][dD]P[X1])), the inhibition at 1.1 µM was found to be 81%.

As to `CC(C)C[C@@H]1NC(=O)[C@@H](c2cccs2)NC(=O)CN(CC(=O)O)C(=O)[C@@H](CC(=O)O)NC(=O)[C@@H](Cc2c[nH]c3ccccc23)NC1=O` [Example 83, cyclo(-DTrp-DAsp-CmGly-DThg-Leu-)], the inhibition at 1.1 µM was 82%. `CC(C)[C@H]1NC(=O)[C@@H]2CCCN2C(=O)[C@@H](CC(=O)O)NC(=O)[C@@H](Cc2c[nH]c3ccccc23)NC(=O)[C@H](Cc2c[nH]cn2)NC1=O` [Example 84, cyclo(-DTrp-DAsp-Pro-DVal-His)] (cyclo(H[dW][dD]P[dV])): the inhibition at 1.1 µM is 43%. Then `CC(C)C[C@@H]1NC(=O)[C@@H](C(C)C)NC(=O)CN(CCc2c[nH]cn2)C(=O)[C@@H](CC(=O)O)NC(=O)[C@@H](Cc2c[nH]c3ccccc23)NC1=O` [Example 85, cyclo(-DTrp-DAsp-IeGly-DVal-Leu-)] (cyclo(L[dW][dD][Gly(N-CH2CH2-imidazol-4-yl)][dV])), with 82%; and `COC(=O)n1cc(C[C@H]2NC(=O)[C@H](CC(C)C)NC(=O)[C@@H](C(C)C)NC(=O)[C@@H]3CCCN3C(=O)[C@@H](CC(=O)O)NC2=O)c2ccccc21` [Example 86, cyclo(-DTrp(COOCH3)-DAsp-Pro-DVal-Leu-)] (cyclo(L[dW](Moc)[dD]P[dV])), with 90%. The figure for `CC(C)C[C@@H]1NC(=O)[C@@H](C(C)C)NC(=O)[C@@H]2CCCN2C(=O)[C@@H](CC(=O)O)NC(=O)[C@@H](Cc2cn(C(=O)OC(C)(C)C)c3ccccc23)NC1=O` [Example 87, cyclo(-DTrp(COO^t Bu)-DAsp-Pro-DVal-leu-)] (cyclo(L[dW](Boc)[dD]P[dV])) is 34%; for `CC(C)C[C@@H]1NC(=O)[C@@H](C(C)C)NC(=O)[C@@H]2CCCN2C(=O)[C@@H](CC(=O)O)NC(=O)[C@@H](CC2C(=O)Nc3ccccc32)NC1=O` (stereo partly drawn) [Example 88, cyclo(-DTrp(O)-Dsp-Pro-DVal-Leu-)] (cyclo(L[X4][dD]P[dV])) it is 78%.
